Data from ChEMBL document CHEMBL1201862, “PubChem BioAssay data set” (2004).
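Cultured in 96-well plates, cells were exposed to test compound for 48 hours across five concentrations. GI50 = concentration required for 50% inhibition of growth.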 Active and inactive are the calls of the source. No stated cut-off is given here; in the data, active = GI50 up to about 1.1 µM and inactive = higher.

Experiments:
Experiment in all cases: inhibition of tumour cell growth, NCI panel, 48 h
DMS-114 = tested on: DMS-114
EKVX = tested on: EKVX
HL-60 = tested on: HL-60
HOP-18 = tested on: HOP-18
HOP-92 = tested on: HOP-92
K562 = tested on: K562
KM-20L2 = tested on: KM-20L2
KM12 = tested on: KM12
LOX IMVI = tested on: LOX IMVI
M14 = tested on: M14
MCF7 = tested on: MCF7
NCI-H23 = tested on: NCI-H23
NCI-H460 = tested on: NCI-H460
OVCAR-5 = tested on: OVCAR-5
RXF 393 = tested on: RXF 393
SK-MEL-5 = tested on: SK-MEL-5
SN12C = tested on: SN12C
SNB-75 = tested on: SNB-75
UACC-257 = tested on: UACC-257
UO-31 = tested on: UO-31

| SMILES | GI50 (DMS-114) | GI50 (EKVX) | GI50 (HL-60) | GI50 (HOP-18) | GI50 (HOP-92) | GI50 (K562) | GI50 (KM-20L2) | GI50 (KM12) | GI50 (LOX IMVI) | GI50 (M14) | GI50 (MCF7) | GI50 (NCI-H23) | GI50 (NCI-H460) | GI50 (OVCAR-5) | GI50 (RXF 393) | GI50 (SK-MEL-5) | GI50 (SN12C) | GI50 (SNB-75) | GI50 (UACC-257) | GI50 (UO-31) |
| --- | --- | --- | --- | --- | --- | --- | --- | --- | --- | --- | --- | --- | --- | --- | --- | --- | --- | --- | --- | --- |
| Cc1ccc2[nH]c3c(C)c4ccncc4c(C)c3c2c1 | 0.369 µM (active) | 1.47 µM (inactive) | 1.22 µM (inactive) | 0.252 µM (active) | 0.553 µM (active) | 0.519 µM (active) | 0.815 µM (active) | 0.614 µM (active) | 0.871 µM (active) | 1.67 µM (inactive) | 0.908 µM (active) | 1.24 µM (inactive) | 0.456 µM (active) | 1.37 µM (inactive) | 0.226 µM (active) | 1.6 µM (inactive) | 0.449 µM (active) | 1.65 µM (inactive) | 1.41 µM (inactive) | 1.58 µM (inactive) |
| CN(C(=O)c1ccccc1)c1ccc2c(c1)C(=O)c1ccccc1C2=O | > 100 µM (inactive) | > 100 µM (inactive) | – | – | > 100 µM (inactive) | > 100 µM (inactive) | > 100 µM (inactive) | > 100 µM (inactive) | > 100 µM (inactive) | > 100 µM (inactive) | – | > 100 µM (inactive) | > 100 µM (inactive) | > 100 µM (inactive) | > 100 µM (inactive) | – | > 100 µM (inactive) | – | > 100 µM (inactive) | > 100 µM (inactive) |
| COc1cc(C2C(Cl)C(=O)N2NC(=O)c2ccccc2O)ccc1O (configuration not stated) | > 100 µM (inactive) | – | > 100 µM (inactive) | 34.8 µM (inactive) | – | > 100 µM (inactive) | – | > 100 µM (inactive) | > 100 µM (inactive) | > 100 µM (inactive) | – | > 100 µM (inactive) | > 100 µM (inactive) | – | 0.0612 µM (active) | > 100 µM (inactive) | > 100 µM (inactive) | – | > 100 µM (inactive) | > 100 µM (inactive) |
| CC(=O)c1c(-c2ccco2)c(C#N)c(=S)n(C2OC(CO)C(O)C(O)C2O)c1C (configuration not stated) | – | 82 µM (inactive) | 50.9 µM (inactive) | – | – | 95.5 µM (inactive) | – | > 100 µM (inactive) | 56.6 µM (inactive) | 72.9 µM (inactive) | 88.5 µM (inactive) | > 100 µM (inactive) | > 100 µM (inactive) | > 100 µM (inactive) | > 100 µM (inactive) | 60.3 µM (inactive) | 71.3 µM (inactive) | 47.5 µM (inactive) | > 100 µM (inactive) | 56.6 µM (inactive) |
| O=C(CCl)NNC1=Nc2ccc(Cl)cc2SC1 | 1.98 µM (inactive) | 2.07 µM (inactive) | 1.55 µM (inactive) | 1.88 µM (inactive) | 1.63 µM (inactive) | 1.87 µM (inactive) | 4.3 µM (inactive) | 5.02 µM (inactive) | 1.14 µM (inactive) | – | 3.01 µM (inactive) | 2.47 µM (inactive) | 6.79 µM (inactive) | 2.26 µM (inactive) | 1.9 µM (inactive) | 2.36 µM (inactive) | 1.95 µM (inactive) | 2.16 µM (inactive) | 3.23 µM (inactive) | 1.86 µM (inactive) |
| CN/N=C(\C(=O)Nc1ccc(C)c(C)c1)C(C(=O)OC)c1nc2ccc([N+](=O)[O-])cc2nc1O (configuration not stated) | 42.2 µM (inactive) | 60.5 µM (inactive) | 50.9 µM (inactive) | – | > 100 µM (inactive) | > 100 µM (inactive) | > 100 µM (inactive) | 94.4 µM (inactive) | > 100 µM (inactive) | > 100 µM (inactive) | – | > 100 µM (inactive) | > 100 µM (inactive) | > 100 µM (inactive) | > 100 µM (inactive) | > 100 µM (inactive) | > 100 µM (inactive) | > 100 µM (inactive) | > 100 µM (inactive) | > 100 µM (inactive) |
| CCCCCn1cc2c3c(cccc31)C1C=C(C)CN(C)[C@@H]1C2.Cc1ccc(C(=O)OC(C(=O)O)C(OC(=O)c2ccc(C)cc2)C(=O)O)cc1 (configuration not stated) | 3.47 µM (inactive) | 10.8 µM (inactive) | 1.35 µM (inactive) | 2.33 µM (inactive) | 1.6 µM (inactive) | 2.51 µM (inactive) | 3.83 µM (inactive) | 5.92 µM (inactive) | 6.47 µM (inactive) | – | 4.03 µM (inactive) | 3.37 µM (inactive) | 3.89 µM (inactive) | 9.89 µM (inactive) | 5.78 µM (inactive) | 3.06 µM (inactive) | 13 µM (inactive) | 5.42 µM (inactive) | 4.21 µM (inactive) | 3.86 µM (inactive) |
| O=C1OC2(CC1C1(O)C3CC4CC(C3)CC1C4)C1CC3CC(C1)CC2C3 (configuration not stated) | 82 µM (inactive) | – | > 100 µM (inactive) | 6.61 µM (inactive) | – | > 100 µM (inactive) | – | > 100 µM (inactive) | 27.9 µM (inactive) | > 100 µM (inactive) | – | > 100 µM (inactive) | 32.1 µM (inactive) | – | > 100 µM (inactive) | 38.3 µM (inactive) | 65.3 µM (inactive) | 40.8 µM (inactive) | > 100 µM (inactive) | > 100 µM (inactive) |
| N#C/C(=C\c1ccncc1)c1csc2ccccc12 | – | 23.8 µM (inactive) | 15.1 µM (inactive) | 31.1 µM (inactive) | 20.9 µM (inactive) | 20.2 µM (inactive) | 20 µM (inactive) | 18.5 µM (inactive) | 20.4 µM (inactive) | – | 25 µM (inactive) | 25.2 µM (inactive) | 24.9 µM (inactive) | 42.3 µM (inactive) | 27.7 µM (inactive) | 16.8 µM (inactive) | 23.6 µM (inactive) | 24.4 µM (inactive) | 23.7 µM (inactive) | 24.9 µM (inactive) |
| Cc1ccc([N+](=O)[O-])cc1S(=O)(=O)Nc1ccc(C2=NNC(c3ccccc3O)C2)cc1 (configuration not stated) | – | 20.9 µM (inactive) | 12.1 µM (inactive) | – | 79.3 µM (inactive) | 24.5 µM (inactive) | – | 21.6 µM (inactive) | 34.8 µM (inactive) | 20.7 µM (inactive) | 23.1 µM (inactive) | 20.6 µM (inactive) | 25.7 µM (inactive) | 32.4 µM (inactive) | 15.2 µM (inactive) | 19.2 µM (inactive) | 23.9 µM (inactive) | 33.2 µM (inactive) | 25.9 µM (inactive) | 17.9 µM (inactive) |
| CC1(C(=O)O)CCC(C(=O)O)C(C)(C)O1 (configuration not stated) | – | > 100 µM (inactive) | – | – | > 100 µM (inactive) | > 100 µM (inactive) | – | > 100 µM (inactive) | > 100 µM (inactive) | > 100 µM (inactive) | > 100 µM (inactive) | > 100 µM (inactive) | > 100 µM (inactive) | > 100 µM (inactive) | > 100 µM (inactive) | > 100 µM (inactive) | > 100 µM (inactive) | > 100 µM (inactive) | > 100 µM (inactive) | > 100 µM (inactive) |
